What was measured:
[1] = tested on: HCT-15; test: NCI 60 cell line screen; format: cell-based, human; conditions: for activity at 10 µM: Homo sapiens, HCT-15, Colon Cancer, read-out: Percent growth
Protocol: (§1) Anticancer profiling over a panel of 60 cancer cell lines was carried out at the National Cancer Institute (NCI), Bethesda, Maryland, USA, https://dtp.cancer.gov/discovery_development/nci-60/methodology.htm (Last visit 22 September 2021), using the standard procedure (detailed procedure is located in the Supplementary Information page 50 s).
(§2) NCI standard procedure for 60 cell lines assay
(§3) The human tumor cell lines of the cancer screening panel are grown in RPMI 1640 mediu m containing 5% fetal bovine serum and 2 mM L-glutamine. For a typical screening experiment, cells are inoculated into 96 well microtiter plates in 100 μL at plating densities ranging from 5,000 to 40,000 cells/well depending on the doubling time of individual cell lines. After cell inoculation, the microtiter plates are incubated at 37° C, 5 % CO2, 95 % air and 100 % relative humidity for 24 h prior to addition of experimental drugs.
(§4) After 24 h, two plates of each cell line are fixed in situ with TCA, to represent a measurement of the cell population for each cell line at the time of drug addition (Tz). Experimental drugs are solubilized in dimethyl sulfoxide at 400-fold the desired final maximum test concentration (10 µM) and stored frozen prior to use. At the time of drug addition, an aliquot of frozen concentrate is thawed and diluted to twice the desired final maximum test concentration with co mp lete medium containing 50 μg/ml gentamicin. Additional four, 10-fold or ½ log serial dilutions are made to provide a total of five drug concentrations plus control. Aliquots of 100 μl of these different drug dilutions are added to the appropriate microtiter wells already containing 100 μl of medium, resulting in the required final drug concentrations.
(§5) Following drug addition, the plates are incubated for an additional 48 h at 37°C, 5 % CO2, 95 % air, and 100 % relative humidity. For adherent cells, the assay is terminated by the addition of cold TCA. Cells are fixed in situ by the gentle addition of 50 μl of cold 50 % (w/v) TCA (final concentration, 10 % TCA) and incubated for 60 minutes at 4°C. The supernatant is discarded, and the plates are washed five times with tap water and air dried. Sulforhodamine B (SRB) solution (100 μl) at 0.4 % (w/v) in 1 % acetic acid is added to each well, and plates are incubated for 10 minutes at room temperature. After staining, unbound dye is removed by washing five times with 1 % acetic acid and the plates are air dried. Bound stain is subsequently solubilized with 10 mM trizma base, and the absorbance is read on an automated plate reader at a wavelength of 515 nm. For suspension cells, the methodology is the same except that the assay is terminated by fixing settled cells at the bottom of the wells by g ently adding 50 μl of 80 % TCA (final concentration, 16 % TCA). Using the seven absorbance measurements [time zero, (Tz), control growth, (C), and test growth in the presence of drug at the five concentration levels (Ti)], the percentage growth is calculated at each of the drug concentrations levels. Percentage growth inhibition is calculated as:
(§6) [(Ti-Tz)/(C-Tz)] x 100 for concentrations for which Ti>/=Tz
(§7) [(Ti-Tz)/Tz] x 100 for concentrations for which Ti<Tz.
(§8) Three dose response parameters are calculated for each experimental agent. Growth inhibition of […]
(§9) resulting in a 50% reduction in the net protein increase (as measured by SRB staining) in control cells during the drug incubation. The drug concentration resulting in total growth inhibition […]
(§10) (TGI) is calculated from Ti = Tz.

[2] = tested on: MDA-MB-468; test: NCI 60 cell line screen; format: cell-based, human; conditions: for activity at 10 µM: Homo sapiens, MDA-MB-468, Breast Cancer, read-out: Percent growth; for percent inhibition: MDA-MB-468, NCI-60 heat map analysis
Protocol: as §1, §2, §3, §4, §5, §6, §7, §8, §9, §10

[3] = tested on: OVCAR-4; test: NCI 60 cell line screen; format: cell-based, human; conditions: for activity at 10 µM: Homo sapiens, OVCAR-4, Ovarian Cancer, read-out: Percent growth
Protocol: as §1, §2, §3, §4, §5, §6, §7, §8, §9, §10

[4] = tested on: KM12; test: NCI 60 cell line screen; format: cell-based, human; conditions: for activity at 10 µM: Homo sapiens, KM12, Colon Cancer, read-out: Percent growth
Protocol: as §1, §2, §3, §4, §5, §6, §7, §8, §9, §10

[5] = tested on: MOLT-4; test: NCI 60 cell line screen; format: cell-based, human; conditions: for activity at 10 µM: Homo sapiens, MOLT-4, Leukemia, read-out: Percent growth; for percent inhibition: MOLT-4, NCI-60 heat map analysis
Protocol: as §1, §2, §3, §4, §5, §6, §7, §8, §9, §10

[6] = tested on: NCI-H226; test: NCI 60 cell line screen; format: cell-based, human; conditions: for activity at 10 µM: Homo sapiens, NCI-H226, Non-Small Cell Lung Cancer, read-out: Percent growth
Protocol: as §1, §2, §3, §4, §5, §6, §7, §8, §9, §10

[7] = tested on: NCI-H23; test: NCI 60 cell line screen; format: cell-based, human; conditions: for activity at 10 µM: Homo sapiens, NCI-H23, Non-Small Cell Lung Cancer, read-out: Percent growth
Protocol: as §1, §2, §3, §4, §5, §6, §7, §8, §9, §10

[8] = tested on: SNB-75; test: NCI 60 cell line screen; format: cell-based, human; conditions: for activity at 10 µM: Homo sapiens, SNB-75, CNS-Cancer, read-out: Percent growth
Protocol: as §1, §2, §3, §4, §5, §6, §7, §8, §9, §10

[9] = tested on: SR; test: NCI 60 cell line screen; format: cell-based, human; conditions: for activity at 10 µM: Homo sapiens, Leukemia, read-out: Percent growth; for percent inhibition: NCI-60 heat map analysis
Protocol: as §1, §2, §3, §4, §5, §6, §7, §8, §9, §10

[10] = tested on: T-47D; test: NCI 60 cell line screen; format: cell-based, human; conditions: for activity at 10 µM: Homo sapiens, T47D, Breast Cancer, read-out: Percent growth; for percent inhibition: NCI-60 heat map analysis
Protocol: as §1, §2, §3, §4, §5, §6, §7, §8, §9, §10

[11] = tested on: NCI/ADR-RES; test: NCI 60 cell line screen; format: cell-based, human; conditions: for activity at 10 µM: Homo sapiens, Ovarian Cancer, read-out: Percent growth
Protocol: as §1, §2, §3, §4, §5, §6, §7, §8, §9, §10

[12] = tested on: EKVX; test: NCI 60 cell line screen; format: cell-based, human; conditions: Homo sapiens, Non-Small Cell Lung Cancer, read-out: Percent growth
Protocol: as §1, §2, §3, §4, §5, §6, §7, §8, §9, §10

[13] = tested on: UO-31; test: NCI 60 cell line screen; format: cell-based, human; conditions: for activity at 10 µM: Homo sapiens, UO-31, Renal Cancer, read-out: Percent growth
Protocol: as §1, §2, §3, §4, §5, §6, §7, §8, §9, §10

[14] = tested on: NCI-H522; test: NCI 60 cell line screen; format: cell-based, human; conditions: Homo sapiens; NCI-H522, Non-Small Cell Lung Cancer; read-out: Percent growth
Protocol: as §1, §2, §3, §4, §5, §6, §7, §8, §9, §10

[15] = molecular target: T1, BRAF (wild-type) (Homo sapiens, UniProt P15056); test: Reaction Biology kinase HotSpot enzyme assay; format: biochemical; conditions: 1 µM ATP; mean ± S.D. of two separate experiments
T1 construct: purchased Reaction Biology Corp. (Kinase HotSpot service)
T1 sequence (P15056 whole entry): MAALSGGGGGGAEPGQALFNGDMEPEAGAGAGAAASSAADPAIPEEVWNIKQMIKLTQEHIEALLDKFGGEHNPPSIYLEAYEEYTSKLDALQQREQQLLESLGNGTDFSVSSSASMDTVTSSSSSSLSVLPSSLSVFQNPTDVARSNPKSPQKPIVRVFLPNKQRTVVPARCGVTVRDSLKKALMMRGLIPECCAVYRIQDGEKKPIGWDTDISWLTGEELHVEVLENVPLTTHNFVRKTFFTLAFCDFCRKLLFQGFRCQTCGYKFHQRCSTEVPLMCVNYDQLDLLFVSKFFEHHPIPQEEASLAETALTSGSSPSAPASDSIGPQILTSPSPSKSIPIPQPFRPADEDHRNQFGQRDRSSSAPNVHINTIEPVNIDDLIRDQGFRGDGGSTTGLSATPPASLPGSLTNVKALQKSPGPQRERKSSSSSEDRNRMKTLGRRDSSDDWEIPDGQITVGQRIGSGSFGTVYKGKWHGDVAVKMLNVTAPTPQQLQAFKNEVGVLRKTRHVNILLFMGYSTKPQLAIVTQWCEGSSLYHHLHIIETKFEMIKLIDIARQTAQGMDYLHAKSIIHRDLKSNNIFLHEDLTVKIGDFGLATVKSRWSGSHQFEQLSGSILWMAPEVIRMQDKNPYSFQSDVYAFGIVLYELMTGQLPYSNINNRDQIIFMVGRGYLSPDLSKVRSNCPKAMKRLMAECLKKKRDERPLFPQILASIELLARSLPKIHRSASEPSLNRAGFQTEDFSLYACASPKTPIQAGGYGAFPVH
Protocol: The enzymatic assays were performed in Reaction Biology Corp. using the standard protocol at 1 µM ATP and threefold dilution factor (detailed procedure is found in the Supplementary Information page 52 s).
Reaction Biology Corp. Kinase HotSpotTM service http://www.reactionbiology.com was used for screening of compounds IC50 Proﬁler Express for IC50 measurement. Assay protocol: In a ﬁnal reaction volume of 25 μL, kinase (5–10 mU) is incubated with 25 mM Tris pH 7.5, 0.02 mM EGTA, 0.66 mg/mL myelin basic protein, 10 mM magnesium acetate and [γ33P-ATP] (speciﬁc activity approx. 500 cpm/pmol, concentration as required). The reaction is initiated by the addition of the Mg-ATP mix. After incubation for 40 min at room temperature, the reaction is stopped by the addition of 5 μL of a 3% phosphoric acid solution. 10 μL of the reaction is then spotted onto a P30 ﬁltermat, and washed three times for 5 min in 75 mM phosphoric acid and once in methanol prior to drying and scintillation counting.

| Structure (SMILES) | activity at 10 µM [1] [%] | activity at 10 µM [2] [%] | activity at 10 µM [3] [%] | activity at 10 µM [4] [%] | activity at 10 µM [5] [%] | activity at 10 µM [6] [%] | activity at 10 µM [7] [%] | activity at 10 µM [8] [%] | activity at 10 µM [9] [%] | activity at 10 µM [10] [%] | activity at 10 µM [11] [%] | activity at 10 µM [12] [%] | activity at 10 µM [13] [%] | activity at 10 µM [14] [%] | IC50 [15] [µM] | further results |
| --- | --- | --- | --- | --- | --- | --- | --- | --- | --- | --- | --- | --- | --- | --- | --- | --- |
| O=S(=O)(NCCNc1nccc(-n2cnc3ccccc32)n1)c1ccccc1 [12a, N-(2-((4-(1H-benzo [d]imidazol-1-yl)pyrimidin-2-yl)amino)ethyl)benzenesulfonamide] | 97 | 94.3 | 93.4 | 100 | 93.7 | 84.6 | 96.4 | 91.8 | 97.5 | 75.4 | 104 | 91.2 | 77 | 93.8 | 3.25 ± 0.45 |  |
| O=S(=O)(NCCNc1nccc(-n2cnc3ccccc32)n1)c1ccc(F)cc1 [12b, N-(2-((4-(1H-benzo [d]imidazol-1-yl)pyrimidin-2-yl)amino)ethyl)-4-fluorobenzenesulfonamide] | 100 | 71.6 | 72.3 | 73.4 | 90.5 | 77.5 | 95.8 | 73.6 | 85.8 | 64.4 | 103 | 85.2 | 72.6 | 71.8 | 1.51 ± 0.22 |  |
| O=S(=O)(NCCNc1nccc(-n2cnc3ccccc32)n1)c1ccc(Cl)cc1 [12c, N-(2-((4-(1H-benzo [d]imidazol-1-yl)pyrimidin-2-yl)amino)ethyl)-4-chlorobenzenesulfonamide] | 96.6 | 101 | 95.2 | 97.1 | 103 | 91.1 | 101 | 79.4 | 96.3 | 97.1 | 97.8 | 92.2 | 81.6 | 92.1 | 1.38 ± 0.17 |  |
| O=S(=O)(NCCNc1nccc(-n2cnc3ccccc32)n1)c1ccc(Br)cc1 [12d, N-(2-((4-(1H-benzo [d]imidazol-1-yl)pyrimidin-2-yl)amino)ethyl)-4-bromobenzenesulfonamide] | 95.7 | 84 | 82.2 | 85.4 | 95.9 | 76.5 | 97.3 | 74.1 | 75.1 | 59.1 | 97.6 | 83.4 | 79.8 | 87.2 | 1.79 ± 0.15 |  |
| O=S(=O)(NCCNc1nccc(-n2cnc3ccccc32)n1)c1ccc(C(F)(F)F)cc1 [12e, N-(2-((4-(1H-benzo [d]imidazol-1-yl)pyrimidin-2-yl)amino)ethyl)-4-(trifluoromethyl)benzenesulfonamide] | 60.7 | 26.4 | 28.4 | 58.7 | 45.2 | 62.7 | 54.5 | 46.8 | 35.5 | 22.3 | 55.9 | 34.7 | 39.9 | 38.2 | 1.25 ± 0.095 | percent inhibition ([1]; HCT-15, NCI-60 heat map analysis): around 40%; percent inhibition [2]: 74%; percent inhibition ([3]; OVCAR-4, NCI-60 heat map analysis): 71%; percent inhibition ([4]; KM12, NCI-60 heat map analysis): around 40%; percent inhibition [5]: 55%; percent inhibition ([7]; NCI-H23, NCI-60 heat map analysis): around 40%; percent inhibition ([8]; SNB-75, NCI-60 heat map analysis): more than 50%; percent inhibition [9]: 65%; percent inhibition [10]: 77%; percent inhibition ([11]; NCI-60 heat map analysis): 45% |
| COc1ccc(S(=O)(=O)NCCNc2nccc(-n3cnc4ccccc43)n2)cc1 [12f, N-(2-((4-(1H-benzo [d]imidazol-1-yl)pyrimidin-2-yl)amino)ethyl)-4-methoxy benzenesulfonamide] | 93.7 | 80.3 | 84.3 | 93.2 | 93.3 | 80.6 | 96.9 | 78.8 | 89.2 | 82.3 | 98.7 | 89.2 | 77.3 | 84.4 | 1.98 ± 0.12 |  |
| Cc1ccc(S(=O)(=O)NCCNc2nccc(-n3cnc4ccccc43)n2)cc1 [12g, N-(2-((4-(1H-benzo [d]imidazol-1-yl)pyrimidin-2-yl)amino)ethyl)-4-methyl benzenesulfonamide] | 80.2 | 51 | 42.1 | 77.4 | 55.3 | 58.7 | 74.6 | 69 | 53.6 | 27.6 | 75.7 | 56.1 | 52 | 64.6 | 1.53 ± 0.26 | percent inhibition [2]: 49%; percent inhibition [5]: around 45%; percent inhibition ([6]; NCI-H226, NCI-60 heat map analysis): around 40%; percent inhibition [9]: around 45%; percent inhibition [10]: 73%; percent inhibition ([13]; UO-31, NCI-60 heat map analysis): 48% |

Reference: publication PMC8508980, “Design, Synthesis and Anticancer Profile of New 4-(1H-benzo[d]imidazol-1-yl)pyrimidin-2-amine-Linked Sulfonamide Derivatives with V600EBRAF Inhibitory Effect” (International Journal of Molecular Sciences, 2021)
